The values below are quoted from earlier work in the PKSmart pharmacokinetics tables (Seal et al. 2025).

In general, MRT refers to a mean duration of stay, worked out from the concentration-time curve. The Vd is the apparent volume that relates the amount in the body to the concentration in plasma or blood. The clearance is the rate of elimination divided by the concentration. The term half-life denotes the time in which the quantity being followed falls by half. One may read the fraction unbound as free concentration divided by total concentration.

Where a SMILES comes first, the peptide text is derived from it. Bridges are numbered along the chain shown (N, C = ends). [ ]: non-standard residue; d: D form. Mpa = O=C(O)CCS

The nature of this series: Lombardo, Berellini, Obach 2018, Drug Metab Dispos 46:1466, doi 10.1124/dmd.118.082966. The following applies: human; for MRT / Vd / clearance / half-life: in vivo, iv; for fraction unbound: plasma.

As to `C/C(=C\c1csc(C)n1)[C@@H]1C[C@@H]2O[C@]2(C)CCC[C@H](C)[C@H](O)C(C)C(=O)C(C)(C)[C@@H](O)CC(=O)N1` (stereo partly drawn), the mean residence time MRT is 18 h, the Vd was 11 L/kg, the clearance is 0.6 L/h/kg and the half-life was 17 h. Besides, the fraction unbound is 0.2.
As for `CCN(CC)CCS(=O)(=O)[C@@H]1CCN2C(=O)c3coc(n3)CC(=O)C[C@H](O)/C=C(C)/C=C\CNC(=O)/C=C/[C@@H](C)[C@H](C(C)C)OC(=O)C12` (stereo partly drawn), the MRT was 0.41 h, the Vd is 0.39 L/kg, the clearance was 0.96 L/h/kg and the half-life is 0.74 h. Besides, the fraction unbound was 0.82.
As for `CC(=O)C(C#N)C(=O)Nc1ccc(C(F)(F)F)cc1` (stereo not drawn), the MRT is 367 h, the Vd is 0.16 L/kg, the clearance is 0.00042 L/h/kg and the half-life was 350 h.
Consider `COc1c(N2CCC/C(=C(\F)CN)C2)c(F)cc2c(=O)c(C(=O)O)cn(C3CC3)c12`, for which the MRT is 24.2 h, the Vd is 1.13 L/kg, the clearance is 0.0468 L/h/kg and the half-life is 19.6 h. Moreover, the fraction unbound was 0.34.
As to `CC(Oc1ccc(Oc2cnc3ccc(Cl)cc3n2)cc1)C(=O)O` (stereo not drawn), the MRT was 63 h, the Vd is 0.19 L/kg, the clearance is 0.003 L/h/kg and the half-life is 48.2 h. For the same molecule, the fraction unbound is 0.0036.
Consider `CCOc1ccc2c(c1)[C@]1(CC[C@H](OCCN3CCOCC3)CC1)C(=O)N2S(=O)(=O)c1ccc(C(=O)NC(C)(C)C)cc1OC`, for which the MRT is 9.4 h, the Vd is 7 L/kg, the clearance was 0.738 L/h/kg and the half-life was 10.4 h. Besides, the fraction unbound is 0.1.
With `O=C1C[C@@H](c2ccccc2)Oc2cc(O)cc(O)c21`, the MRT is 0.47 h, the Vd was 0.8 L/kg, the clearance is 1.62 L/h/kg and the half-life was 0.7 h.
As to `N=C(N)NCCCC1NC(=O)CCSSCC(C(N)=O)NC(=O)C2CCCN2C(=O)C(Cc2c[nH]c3ccccc23)NC(=O)C(CC(=O)O)NC(=O)CNC1=O` (stereo not drawn) ([Mpa]RGDWPC-NH2; disulfide 1-7; configuration not given here), the MRT was 2.45 h, the Vd is 0.42 L/kg, the clearance is 0.173 L/h/kg and the half-life was 2.12 h.
For the molecule `CN(C)CC(Oc1ccccc1)Oc1ccccc1`, the MRT is 3.4 h, the Vd is 2.8 L/kg, the clearance was 0.822 L/h/kg and the half-life is 4.4 h.
On to `CCCC(=O)Nc1ccc(OCC(O)CNC(C)C)c(C(C)=O)c1` (stereo not drawn), for which the MRT is 2.8 h, the Vd was 1.7 L/kg and the half-life is 3.5 h.
As to `Clc1cccc(N2CCNCC2)c1`, the MRT was 7 h, the Vd was 2.5 L/kg, the clearance was 0.366 L/h/kg and the half-life was 4.7 h.
With `Nc1c(CC(=O)O)cccc1C(=O)c1ccc(Br)cc1`, the MRT was 1.5 h, the Vd was 0.11 L/kg, the clearance is 0.078 L/h/kg and the half-life is 2.6 h. For the same molecule, the fraction unbound is 0.0011.
In the case of `CCOCCO[C@@H]1CC[C@@H](C[C@@H](C)[C@@H]2CC(=O)C(C)=CC(C)[C@@H](O)C(OC)C(=O)C(C)C[C@H](C)/C=C/C=C/C=C(\C)[C@@H](OC)C[C@@H]3CC[C@@H](C)[C@@](O)(O3)C(=O)C(=O)N3CCCCC3C(=O)O2)C[C@H]1OC` (stereo partly drawn), the MRT is 60.9 h, the Vd was 44.5 L/kg, the clearance was 0.732 L/h/kg and the half-life was 93.9 h.
As to `CC(=O)O[C@H]1C[C@@H]2CC[C@@H]3[C@H](CC[C@@]4(C)[C@H]3C[C@H]([N+]3(C)CCCCC3)[C@@H]4OC(C)=O)[C@@]2(C)C[C@@H]1N1CCCCC1`, the MRT is 1.1 h, the Vd was 0.3 L/kg, the clearance is 0.27 L/h/kg and the half-life was 1.4 h. Further, the free fraction (fraction unbound) is 0.25.
For `Cc1c(OCC(F)(F)F)ccnc1C[S+](O)c1nc2ccccc2[n-]1` (stereo not drawn), the MRT is 1.1 h, the Vd is 0.28 L/kg, the clearance is 0.264 L/h/kg and the half-life was 1 h.
Turning to `COc1cc(CC2c3c(cc(OC)c(OC)c3OC)CC[N+]2(C)CCCOC(=O)CCC(=O)OCCC[N+]2(C)CCc3cc(OC)c(OC)c(OC)c3C2Cc2cc(OC)c(OC)c(OC)c2)cc(OC)c1OC` (stereo not drawn), the MRT is 1.4 h, the Vd was 0.22 L/kg, the clearance is 0.162 L/h/kg and the half-life was 1.7 h. Also, the fraction unbound is 0.53.
Take `CCCC(C)C1(CC)C(=O)NC(=S)NC1=O` (stereo not drawn): the MRT is 2.4 h, the Vd is 1.2 L/kg, the clearance is 0.492 L/h/kg and the half-life was 2 h. Besides, the fraction unbound was 0.14.
In the case of `NC(Cc1ccc(N(CCCl)CCCl)cc1)C(=O)O` (stereo not drawn), the fraction unbound is 0.14.
On to `OCCN1CCN(CCCN2c3ccccc3Sc3ccc(Cl)cc32)CC1`, for which the MRT is 11 h, the Vd was 18 L/kg, the clearance was 1.62 L/h/kg and the half-life was 9.4 h. The fraction unbound is 0.07.
On to `Cc1onc(-c2c(F)cccc2Cl)c1C(=O)NC1C(=O)N2C(C(=O)O)C(C)(C)S[C@H]12` (stereo partly drawn), for which the MRT is 1.3 h, the Vd was 0.19 L/kg, the clearance is 0.144 L/h/kg and the half-life is 1.4 h. The fraction unbound is 0.043.
Consider `CCC[S@+](O)CCCN(CC)C[C@@H](O)COc1ccc(C#N)cc1`, for which the MRT was 2.65 h, the Vd is 1.8 L/kg, the clearance was 0.678 L/h/kg and the half-life was 2.4 h.
For `CCCN(CCc1cccs1)[C@H]1CCc2c(O)cccc2C1`, the MRT is 2.6 h, the Vd is 5.7 L/kg, the clearance is 2.22 L/h/kg and the half-life is 4 h. Besides, the fraction unbound is 0.08.
For the molecule `COc1ccc2[nH]c3c(c2c1)CCN[C@]31CS[C@@H]2c3c(OC(C)=O)c(C)c4c(c3[C@H](COC1=O)N1[C@@H]2[C@H]2c3c(cc(C)c(OC)c3O)C[C@@H]([C@@H]1O)N2C)OCO4`, the mean residence time (MRT) was 44 h, the Vd is 7.3 L/kg, the clearance is 0.166 L/h/kg and the half-life was 50.7 h.
Regarding `COc1cc(C(=O)C(=O)N2CCCCC2C(=O)OC(CCCc2cccnc2)CCCc2cccnc2)cc(OC)c1OC` (stereo not drawn), the MRT was 2.62 h, the distribution volume (Vd) was 1.34 L/kg, the clearance is 0.51 L/h/kg and the half-life is 1.1 h.
As to `Cc1c(-c2ccc(O)cc2)n(Cc2ccc(OCCN3CCCCCC3)cc2)c2ccc(O)cc12`, the fraction unbound was 0.02.
As to `Cc1cnc(C(=O)NC2CCCCC/C=C\[C@@H]3C[C@@]3(C(=O)NS(=O)(=O)C3CC3)NC(=O)C3C[C@@H](Oc4nc5ccccc5c5ccccc45)CN3C2=O)cn1` (stereo partly drawn), the MRT is 3.96 h, the Vd was 1.37 L/kg, the clearance is 0.344 L/h/kg and the half-life was 8.71 h. In addition, the fraction unbound was 0.022.
With `NCCNc1ccc(NCCN)c2c1C(=O)c1ccncc1C2=O`, the MRT was 8.9 h, the Vd was 10.1 L/kg, the clearance was 1.06 L/h/kg and the half-life is 13.4 h.
With `CCN(CC)CCNC(=O)c1cc(Br)c(N)cc1OC`, the MRT is 4 h, the Vd was 3.1 L/kg, the clearance is 0.78 L/h/kg and the half-life is 2.9 h. Also, the free fraction (fraction unbound) was 0.6.
Take `O=C(/C=C/c1ccc(O)c(O)c1)O[C@@H]1C[C@](O)(C(=O)O)C[C@@H](OC(=O)/C=C/c2ccc(O)c(O)c2)[C@H]1O`: the MRT was 1.05 h, the Vd was 4.82 L/kg, the clearance was 4.55 L/h/kg and the half-life is 3.17 h.
In the case of `CC(C)NC[C@@H](O)COc1cccc2c1N(C(=O)c1cccnc1)CCC2`, the MRT was 3.1 h, the Vd is 0.67 L/kg, the clearance was 0.216 L/h/kg and the half-life was 12.4 h.
Consider `CN(C)Cc1c(C(=O)NCCOc2ccc(C(O)=NO)cc2)oc2ccccc12`, for which the MRT was 2.65 h, the Vd was 2.6 L/kg, the clearance is 0.98 L/h/kg and the half-life was 5.9 h.
As for `NC(Cc1ccccn1)c1ccccc1` (stereo not drawn), the MRT was 15.1 h, the Vd was 1.62 L/kg, the clearance was 0.108 L/h/kg and the half-life was 10.4 h.
Regarding `Nc1nc(CC(=O)Nc2ccc(CCNC[C@H](O)c3ccccc3)cc2)cs1`, the MRT was 29.3 h, the Vd is 23.8 L/kg, the clearance is 0.816 L/h/kg and the half-life was 50 h. Further, the fraction unbound was 0.29.
On to `CC(=N)N1CC[C@H](Oc2ccc(C(Cc3ccc4ccc(C(=N)N)cc4c3)C(=O)O)cc2)C1` (stereo partly drawn), for which the mean residence time MRT was 14.4 h, the Vd is 1.55 L/kg, the clearance was 0.112 L/h/kg and the half-life was 24 h.
Take `C/C=C/c1cc(OC)c(OC)cc1OC`: the MRT was 1.9 h, the Vd was 1 L/kg, the clearance was 0.528 L/h/kg and the half-life is 3.7 h.
